US6504030B1, “Polymorphic form of clopidogrel hydrogen sulphate” (Sanofi-Synthelabo, priority 1998, dated 2003)
Where a name gives a salt, the structure may show the parent alone.

Assays:
[1] = tested on: platelet aggregation; conditions: enantiomers compared, per EP 281459; cited from earlier work
[2] = compared with Form 1
[3] = compared with dextrorotatory isomer, per EP 281459; cited from earlier work

| Compound | platelet aggregation inhibiting activity [1] | compactness of bulk solid [2] | electrostatic behaviour of bulk solid [2] | tolerance [3] |
| --- | --- | --- | --- | --- |
| COC(=O)[C@H](c1ccccc1Cl)N1CCc2sccc2C1 [clopidogrel hydrogen sulfate, hydrogen sulfate of methyl (+)-(S)-α-(2-chlorophenyl)-4,5,6,7-tetrahydrothieno[3,2-c]pyridine-5-acetate] | excellent platelet aggregation inhibiting activity | – | – | – |
| COC(=O)[C@H](c1ccccc1Cl)N1CCc2sccc2C1.O=S(=O)(O)O [Form 2, hydrogen sulfate of methyl (+)-(S)-α-(2-chlorophenyl)-4,5,6,7-tetrahydrothieno[3,2-c]pyridine-5-acetate] | – | more compact | much less electrostatic than Form 1 | – |
| COC(=O)C(c1ccccc1Cl)N1CCc2sccc2C1 (single isomer, unassigned) [levorotatory isomer] | less active | – | – | less well tolerated |
